The results in this text go back to patent US5703056A, “Non-invasive imaging of gene transfer” (priority 1995, dated 1997).

One experiment deals with HSV1-TK (Human alphaherpesvirus 1 strain 17, UniProt P0DTH5). Nature of the experiment: Accumulation of radiolabelled marker substrates in RG2TK+ transduced and RG2 wild-type cells, normalized to TdR. Format: cell-based, herpes simplex virus. The method, then: Source of radiolabelled "marker substrates". […] No carrier-added 5-[^123 I]-deoxyuridine (IUdR) was prepared by reacting 2-deoxyuridine (UdR) with carrier-free ^123 I-labelled sodium iodide in an iodogen coated reaction vial.
HSV1-TK, sequence (P0DTH5 whole entry): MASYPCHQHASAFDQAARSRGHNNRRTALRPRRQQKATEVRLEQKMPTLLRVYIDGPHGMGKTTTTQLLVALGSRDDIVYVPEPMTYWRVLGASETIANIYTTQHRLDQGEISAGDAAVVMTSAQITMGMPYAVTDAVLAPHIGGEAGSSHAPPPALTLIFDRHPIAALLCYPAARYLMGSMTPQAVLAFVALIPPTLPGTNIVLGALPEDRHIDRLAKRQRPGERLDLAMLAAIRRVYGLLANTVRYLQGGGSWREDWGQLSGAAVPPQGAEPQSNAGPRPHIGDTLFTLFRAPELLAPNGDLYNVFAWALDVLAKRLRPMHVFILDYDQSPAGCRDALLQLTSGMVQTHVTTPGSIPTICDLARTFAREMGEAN
Comparison of "marker substrates" for identifying HSV1-tk gene expression in tissue culture. […] Each of these substrates were developed for or used as an anti-viral agent; they are phosphorylated by HSV1-TK and can be radiolabelled for noninvasive imaging.
Wild-type (nontransduced) RG2 cells were studied as a reference control. […] The cells were dislodged from the Petri dishes with a soft scraper, poured into 15 ml conical tubes, centrifuged and the medium aspirated. The tubes were cut to facilitate removing cells; they were blotted, placed in pre-weighed vials, weighed and prepared for counting. Samples were assayed for ^3 H- and ^14 C-radioactivity using a Packard B1600 TriCarb beta spectrometer using dual-channel and external standard splash and quench correction techniques. The medium was also counted before and following incubation. The data was expressed as a harvested cell-to-medium concentration ratio (dpm/g cells.div.dpm/ml medium).
Data analysis. […] These two related measures are useful to evaluate the intensity of the images (e.g., high "sensitivity") and the ability to differentiate between HSV1-TK and endogenous-TK in the images (e.g., high "selectivity"). The "selectivity" measure is not interpreted as a relative sensitivity (i.e., a value of 1 indicating equal sensitivity) of the substrate to HSV1-TK vs. endogenous-TK. […] They are intended for the direct comparison of substrates only.

The next experiment deals with RG2TK+ cells. As to the kind of experiment: Ganciclovir sensitivity assay (methyl-[3H]-thymidine accumulation, percent of control). Format: cell-based, rat. As to conditions: for IC50: Rattus norvegicus, read-out: ganciclovir ED50. On the procedure:
Transduction of the HSV1-TK gene into RG2 cells. The STK retrovirus was obtained from filtered (0.1 μm) supernatants of gp-STK-A2 producer cell line cultures grown from a 50% confluent monolayer over 24 hours in Dulbecco's high-glucose medium with 10% bovine serum. Transduction of RG2 cells was accomplished by exposing the cell monolayer to the filtrate for 8 hours in the presence of Polybrene™ (8 μg/ml). Following a 24 hour incubation in standard medium, a selection medium containing Geneticin™ disulfate (800 μg/ml) was used to eliminate cells not expressing the neomycin resistance gene. The selection medium was changed daily to remove dead cells. After 7 days, a bulk culture of transduced RG2 cells (RG2TK+) was harvested for further propogation.
(§1) Sensitivity to ganciclovir and selection of "high" and "low" sensitivity clones. […] Following one day of growth, the culture medium of RG2TK+ and RG2 cells in Costar™ 96-well plates was replaced with ganciclovir™-containing medium (Cytovene™; Syntax Laboratories, Inc.; Palo Alto, Calif.) in the following concentrations: 3, 1, 0.6, 0.3, 0.1, 0.06, 0.03, 0.01, 0,006, 0.003, 0.001, 0.0006, 0.0003, 0.0001, 0.00006 mg/ml and ganciclovir™-free control media. The ganciclovir™-containing and control incubation media were changed daily. […] Radioactivity measured in each ganciclovir™-containing well was expressed as a percent of control (ganciclovir™-free) activity.

The subject of a further experiment is RG2 cells. The description is as above. Format: cell-based. As to conditions: Rattus norvegicus; naive RG2 cells; read-out: ganciclovir ED50. On the procedure:
as §1

Structures are written as SMILES. ≈ marks a conversion by molar mass, not a printed value. Where two headings read alike, the source gives them in different places. Where only a bound is given, the exact number is not on record here.

With `Nc1nc2c(ncn2COC(CO)CO)c(=O)[nH]1` [ganciclovir, 9-(1,3-dihydroxy-2-propoxymethyl)-guanine], on HSV1-TK (Data from FIG. 5), the “Selectivity+ Sensitivity*/(substrate/TdR) for RG2” value is given as 0.143. The “Sensitivity* Δ(substrate/TdR)/Δ(HSV1TK mRNA/S28 RNA IOD)” value on HSV1-TK (Data from FIG. 5) is 0.0004. The “accumulation of ganciclovir by RG2TK+ cells compared to that of FIAU” value at HSV1-TK (RG2TK+ cells) was “less than 5%”. The “accumulation of ganciclovir by RG2TK+ cells compared to that of IUdR” value on HSV1-TK (RG2TK+ cells) is listed as below 3%. Also, the “accumulation in bulk RG2TK+ cells relative to wild-type RG2 cells” value on HSV1-TK (normalized to TdR, FIGS. 4 and 5B) amounted to 5.6 fold. Further, in the experiment with RG2TK+ cells ("high" sensitivity RG2TK+ clones (clone #16) vs bulk RG2TK+), the “fold more sensitive to ganciclovir compared to bulk RG2TK+ cells” value worked out at 5 fold. In addition, in the experiment with RG2TK+ cells ("low" sensitivity RG2TK+ clones vs bulk RG2TK+), the “fold less sensitive to ganciclovir compared to bulk RG2TK+ cells” value is on record as “roughly 30 fold”. The IC50 was around 0.2 µg/mL (≈ 0.784 µM) in the experiment with RG2TK+ cells ("high-sensitivity" RG2TK+ clone #16), around 30 µg/mL (≈ 118 µM) with RG2TK+ cells ("low-sensitivity" RG2TK+ clone #32), 1 µg/mL (≈ 3.92 µM) in the experiment on RG2TK+ cells (bulk culture of transduced RG2TK+ cells) and 200 µg/mL (≈ 784 µM) in the experiment on RG2 cells. In addition, in the experiment with RG2TK+ cells (bulk RG2TK+ cells vs wild-type RG2 cells), the “fold more sensitive to ganciclovir than RG2 cells” value is given as “approximately 200 fold”. Also, the “fold more sensitive to ganciclovir than wild-type RG2 cells” value in the experiment on RG2TK+ cells (high-sensitivity RG2TK+ clone #16 vs wild-type RG2) is “approximately 1000 fold”.
